{"source": "PubChem BioAssay (NCI)", "assay_in_all_cases": "NCI-60 cell line screen, 48 h", "key": {"UACC-257 melanoma": {"tested_on": "UACC-257 melanoma"}, "SF-295 CNS": {"tested_on": "SF-295 CNS"}, "HS 578T breast": {"tested_on": "HS 578T breast"}, "K-562 leukemia": {"tested_on": "K-562 leukemia"}, "SNB-75 CNS": {"tested_on": "SNB-75 CNS"}, "NCI/ADR-RES ovarian": {"tested_on": "NCI/ADR-RES ovarian"}, "HCC-2998 colon": {"tested_on": "HCC-2998 colon"}, "UACC-62 melanoma": {"tested_on": "UACC-62 melanoma"}, "U251 CNS": {"tested_on": "U251 CNS"}, "HT29 colon": {"tested_on": "HT29 colon"}, "COLO 205 colon": {"tested_on": "COLO 205 colon"}, "SF-539 CNS": {"tested_on": "SF-539 CNS"}, "SNB-19 CNS": {"tested_on": "SNB-19 CNS"}, "IGROV1 ovarian": {"tested_on": "IGROV1 ovarian"}, "SK-MEL-2 melanoma": {"tested_on": "SK-MEL-2 melanoma"}, "KM12 colon": {"tested_on": "KM12 colon"}, "PC-3 prostate": {"tested_on": "PC-3 prostate"}, "OVCAR-3 ovarian": {"tested_on": "OVCAR-3 ovarian"}, "NCI-H23 lung": {"tested_on": "NCI-H23 lung"}, "ACHN renal": {"tested_on": "ACHN renal"}, "OVCAR-4 ovarian": {"tested_on": "OVCAR-4 ovarian"}, "HCT-116 colon": {"tested_on": "HCT-116 colon"}, "DU-145 prostate": {"tested_on": "DU-145 prostate"}, "CAKI-1 renal": {"tested_on": "CAKI-1 renal"}, "RXF 393 renal": {"tested_on": "RXF 393 renal"}, "MOLT-4 leukemia": {"tested_on": "MOLT-4 leukemia"}, "A498 renal": {"tested_on": "A498 renal"}, "EKVX NSCLC": {"tested_on": "EKVX NSCLC"}, "SK-MEL-5 melanoma": {"tested_on": "SK-MEL-5 melanoma"}, "CCRF-CEM leukemia": {"tested_on": "CCRF-CEM leukemia"}, "UO-31 renal": {"tested_on": "UO-31 renal"}, "HL-60(TB) leukemia": {"tested_on": "HL-60(TB) leukemia"}, "BT-549 breast": {"tested_on": "BT-549 breast"}, "OVCAR-5 ovarian": {"tested_on": "OVCAR-5 ovarian"}, "NCI-H522 lung": {"tested_on": "NCI-H522 lung"}, "T-47D breast": {"tested_on": "T-47D breast"}, "HOP-92 NSCLC": {"tested_on": "HOP-92 NSCLC"}, "RPMI-8226 leukemia": {"tested_on": "RPMI-8226 leukemia"}, "M14 melanoma": {"tested_on": "M14 melanoma"}, "LOX IMVI melanoma": {"tested_on": "LOX IMVI melanoma"}, "OVCAR-8 ovarian": {"tested_on": "OVCAR-8 ovarian"}, "MCF7 breast": {"tested_on": "MCF7 breast"}, "HOP-62 NSCLC": {"tested_on": "HOP-62 NSCLC"}, "MDA-MB-231 breast": {"tested_on": "MDA-MB-231 breast"}, "TK-10 renal": {"tested_on": "TK-10 renal"}, "SK-OV-3 ovarian": {"tested_on": "SK-OV-3 ovarian"}, "NCI-H226 lung": {"tested_on": "NCI-H226 lung"}, "HCT-15 colon": {"tested_on": "HCT-15 colon"}, "A549 NSCLC": {"tested_on": "A549 NSCLC"}, "SW-620 colon": {"tested_on": "SW-620 colon"}, "SF-268 CNS": {"tested_on": "SF-268 CNS"}, "SK-MEL-28 melanoma": {"tested_on": "SK-MEL-28 melanoma"}, "MDA-N": {"tested_on": "MDA-N"}, "SN12C renal": {"tested_on": "SN12C renal"}, "MALME-3M melanoma": {"tested_on": "MALME-3M melanoma"}, "786-0 renal": {"tested_on": "786-0 renal"}, "MDA-MB-435": {"tested_on": "MDA-MB-435"}}, "note": "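Following 48 hours of exposure in 96-well plates, responses at five concentrations were used to interpolate endpoints linearly. TGI: concentration producing complete growth inhibition.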"}
{"smiles": "CC(C)=CCc1c(O)c(CC2=C(O)C(C)=C(O)C(CC=C(C)C)(C(=O)C(C)C)C2=O)c(O)c(C(=O)C(C)C)c1O", "note": "(configuration not stated)", "values": [{"measurement": "TGI", "setting": "UACC-257 melanoma", "value": 28.8, "unit": "µM"}, {"measurement": "TGI", "setting": "SF-295 CNS", "value": "> 38.1", "unit": "µM"}, {"measurement": "TGI", "setting": "HS 578T breast", "value": 21.6, "unit": "µM"}, {"measurement": "TGI", "setting": "K-562 leukemia", "value": 34, "unit": "µM"}, {"measurement": "TGI", "setting": "SNB-75 CNS", "value": "> 47.7", "unit": "µM"}, {"measurement": "TGI", "setting": "NCI/ADR-RES ovarian", "value": 27.5, "unit": "µM"}, {"measurement": "TGI", "setting": "HCC-2998 colon", "value": "> 38.9", "unit": "µM"}, {"measurement": "TGI", "setting": "UACC-62 melanoma", "value": 22.4, "unit": "µM"}, {"measurement": "TGI", "setting": "U251 CNS", "value": "> 40.2", "unit": "µM"}, {"measurement": "TGI", "setting": "HT29 colon", "value": 12.6, "unit": "µM"}, {"measurement": "TGI", "setting": "COLO 205 colon", "value": "> 47.7", "unit": "µM"}, {"measurement": "TGI", "setting": "SF-539 CNS", "value": "> 47.7", "unit": "µM"}, {"measurement": "TGI", "setting": "SNB-19 CNS", "value": "> 31", "unit": "µM"}, {"measurement": "TGI", "setting": "IGROV1 ovarian", "value": 31.3, "unit": "µM"}, {"measurement": "TGI", "setting": "SK-MEL-2 melanoma", "value": "> 31.4", "unit": "µM"}, {"measurement": "TGI", "setting": "KM12 colon", "value": 17.5, "unit": "µM"}, {"measurement": "TGI", "setting": "PC-3 prostate", "value": "> 47.7", "unit": "µM"}, {"measurement": "TGI", "setting": "OVCAR-3 ovarian", "value": "> 38.1", "unit": "µM"}, {"measurement": "TGI", "setting": "NCI-H23 lung", "value": 25.4, "unit": "µM"}, {"measurement": "TGI", "setting": "ACHN renal", "value": "> 40.5", "unit": "µM"}, {"measurement": "TGI", "setting": "OVCAR-4 ovarian", "value": "> 47.7", "unit": "µM"}, {"measurement": "TGI", "setting": "HCT-116 colon", "value": 19.8, "unit": "µM"}, {"measurement": "TGI", "setting": "DU-145 prostate", "value": "> 47.7", "unit": "µM"}, {"measurement": "TGI", "setting": "CAKI-1 renal", "value": "> 47.7", "unit": "µM"}, {"measurement": "TGI", "setting": "RXF 393 renal", "value": "> 47.7", "unit": "µM"}, {"measurement": "TGI", "setting": "MOLT-4 leukemia", "value": 11.4, "unit": "µM"}, {"measurement": "TGI", "setting": "A498 renal", "value": "> 38.9", "unit": "µM"}, {"measurement": "TGI", "setting": "EKVX NSCLC", "value": "> 44.6", "unit": "µM"}, {"measurement": "TGI", "setting": "SK-MEL-5 melanoma", "value": 18.3, "unit": "µM"}, {"measurement": "TGI", "setting": "CCRF-CEM leukemia", "value": "> 15.1", "unit": "µM"}, {"measurement": "TGI", "setting": "UO-31 renal", "value": 19.5, "unit": "µM"}, {"measurement": "TGI", "setting": "HL-60(TB) leukemia", "value": "> 47.7", "unit": "µM"}, {"measurement": "TGI", "setting": "BT-549 breast", "value": 36.9, "unit": "µM"}, {"measurement": "TGI", "setting": "OVCAR-5 ovarian", "value": "> 42.5", "unit": "µM"}, {"measurement": "TGI", "setting": "NCI-H522 lung", "value": 21.5, "unit": "µM"}, {"measurement": "TGI", "setting": "T-47D breast", "value": 33.7, "unit": "µM"}, {"measurement": "TGI", "setting": "HOP-92 NSCLC", "value": 25.5, "unit": "µM"}, {"measurement": "TGI", "setting": "RPMI-8226 leukemia", "value": "> 31.2", "unit": "µM"}, {"measurement": "TGI", "setting": "M14 melanoma", "value": "> 36.6", "unit": "µM"}, {"measurement": "TGI", "setting": "LOX IMVI melanoma", "value": "> 28.1", "unit": "µM"}, {"measurement": "TGI", "setting": "OVCAR-8 ovarian", "value": 31.2, "unit": "µM"}, {"measurement": "TGI", "setting": "MCF7 breast", "value": "> 45.3", "unit": "µM"}, {"measurement": "TGI", "setting": "HOP-62 NSCLC", "value": "> 29.5", "unit": "µM"}, {"measurement": "TGI", "setting": "MDA-MB-231 breast", "value": 46.5, "unit": "µM"}, {"measurement": "TGI", "setting": "TK-10 renal", "value": "> 47.7", "unit": "µM"}, {"measurement": "TGI", "setting": "SK-OV-3 ovarian", "value": "> 47.7", "unit": "µM"}, {"measurement": "TGI", "setting": "NCI-H226 lung", "value": 21.8, "unit": "µM"}, {"measurement": "TGI", "setting": "HCT-15 colon", "value": "> 47.7", "unit": "µM"}, {"measurement": "TGI", "setting": "A549 NSCLC", "value": "> 47.7", "unit": "µM"}, {"measurement": "TGI", "setting": "SW-620 colon", "value": "> 44.7", "unit": "µM"}, {"measurement": "TGI", "setting": "SF-268 CNS", "value": "> 47.7", "unit": "µM"}, {"measurement": "TGI", "setting": "SK-MEL-28 melanoma", "value": "> 31.7", "unit": "µM"}, {"measurement": "TGI", "setting": "MDA-N", "value": 38.1, "unit": "µM"}, {"measurement": "TGI", "setting": "SN12C renal", "value": "> 47.7", "unit": "µM"}, {"measurement": "TGI", "setting": "MALME-3M melanoma", "value": 17.9, "unit": "µM"}, {"measurement": "TGI", "setting": "786-0 renal", "value": "> 35.3", "unit": "µM"}, {"measurement": "TGI", "setting": "MDA-MB-435", "value": "> 38.4", "unit": "µM"}]}
